From patent US20030109418A1, “Methods for identifying compounds for inhibition of neoplastic lesions, and pharmaceutical compositions containing such compounds” (priority 1999, published 2003)
Where a name gives a salt, the structure may show the parent alone.

Assays:
[1] = molecular target: T1, purified cyclooxygenase (Type 1, COX-I) from ram seminal vesicles (Ovis aries, UniProt P05979); experiment: COX inhibition assay, purified cyclooxygenase; type: biochemical; conditions: for inhibition at 100 µM: read-out: Cyclooxygenase inhibitory activity, % Inhibition at 100 μM
T1 construct: using purified cyclooxygenase from ram seminal vesicles as described previously; tissue Cayman Chemical, Ann Arbor, Mich; (named in the general protocol only); host or cells: ram seminal vesicles
T1 sequence (P05979 25-600): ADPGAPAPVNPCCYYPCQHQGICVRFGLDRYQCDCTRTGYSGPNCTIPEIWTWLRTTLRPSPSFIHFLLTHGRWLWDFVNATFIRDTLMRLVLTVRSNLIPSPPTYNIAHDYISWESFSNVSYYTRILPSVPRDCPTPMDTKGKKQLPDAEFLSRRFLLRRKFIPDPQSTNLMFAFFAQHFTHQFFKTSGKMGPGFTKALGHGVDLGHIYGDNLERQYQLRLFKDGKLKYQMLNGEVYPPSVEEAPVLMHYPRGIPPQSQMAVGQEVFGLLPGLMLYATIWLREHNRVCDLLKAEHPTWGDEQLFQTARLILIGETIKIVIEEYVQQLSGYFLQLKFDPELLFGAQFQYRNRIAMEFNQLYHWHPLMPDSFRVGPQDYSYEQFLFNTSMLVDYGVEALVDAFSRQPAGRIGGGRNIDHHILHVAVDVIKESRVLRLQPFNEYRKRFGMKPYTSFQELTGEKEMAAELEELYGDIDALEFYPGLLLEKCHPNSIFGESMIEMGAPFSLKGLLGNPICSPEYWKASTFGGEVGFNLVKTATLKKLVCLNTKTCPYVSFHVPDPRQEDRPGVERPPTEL

[2] = tested on: cGMP PDE purified from human colon HT-29 cultured tumor cells; experiment: cGMP PDE inhibition assay; type: biochemical; conditions: for IC50: read-out: IC50 for inhibition of cGMP PDE, HT-29 cell enzyme
[3] = tested on: SW-480 colon adenocarcinoma cells; experiment: Apoptosis induction determined by morphology, SW-480; type: cell-based, human
Excerpt: (§1) Following treatment with a compound, cultures can be assayed for apoptosis and necrosis by florescent microscopy following labeling with acridine orange and ethidium bromide. The method for measuring apoptotic cell number has previously been described by Duke & Cohen, “Morphological And Biochemical Assays Of Apoptosis,” Current Protocols In Immunology, Coligan et al., eds., 3.17.1-3.17.16 (1992, which is incorporated herein by reference).
(§2) For example, floating and attached cells can be collected by trypsinization and washed three times in PBS. Aliquots of cells can be centrifuged. The pellet can then be re-suspended in media and a dye mixture containing acridine orange and ethidium bromide prepared in PBS and mixed gently. The mixture can then be placed on a microscope slide and examined for morphological features of apoptosis.
In addition, the percent apoptosis for Compound I in SW-480 is shown in Table 12 at various drug concentrations.

Colo 205 = experiment: Growth inhibition, neutral red assay, Colo 205; type: cell-based, human; conditions: free base, five days
Protocol: (§3) Compound I's activity is not confined to activity against colon cancer cell lines or animal models of colon cancer. It has a broad range of anti-neoplastic effects in various neoplastic cell lines. Various types of human cancer cell lines were propagated under sterile conditions in RPMI 1640 medium with 10% fetal bovine serum, 2 mM L-glutamine and sodium bicarbonate. To determine growth inhibitory effects of Compound I, cells were seeded in 96-well plates at a density of 1000 cells per well. Twenty-four hours after plating, the cells were dosed with various concentrations of the free base of Compound I solubilized in DMSO (final concentration 0.1%). The effect of the drug on tumor cell growth was determined using the neutral red cytotoxicity assay following five days of continuous treatment. Neutral red is a dye that is selectively taken up by viable cells by an ATP-dependent transport mechanism.

NCI-H460 = experiment: Growth inhibition, neutral red assay, NCI-H460; type: cell-based, human; conditions: free base, five days
Protocol: as §3

Molt-4 = experiment: Growth inhibition, neutral red assay, Molt-4; type: cell-based; conditions: Homo sapiens, HCl salt
Protocol: as §3

K-562 = experiment: Growth inhibition, neutral red assay, K-562; type: cell-based; conditions: Homo sapiens, K562; HCl salt
Protocol: as §3

OVCAR = experiment: Growth inhibition, neutral red assay, OVCAR; type: cell-based; conditions: Homo sapiens; HCl salt
Protocol: as §3

PANC-1 = experiment: Growth inhibition, neutral red assay, PANC-1; type: cell-based; conditions: Homo sapiens, HCl salt
Protocol: as §3

[4] = rat, in vivo
[5] = tested on: SW-480 colon adenocarcinoma cells; experiment: Apoptosis fold induction protocol (DNA fragmentation ELISA); conditions: Homo sapiens
[6] = tested on: HT-29 colon adenocarcinoma cells; experiment: Apoptosis by DNA fragmentation assay in HT-29; type: cell-based, human; conditions: qualitative activity profile; further: key: −: Not active; +: Slightly active; ++: Moderately active; +++: Strongly active; ++++: Highly active
HT-29 cells = experiment: Apoptosis and necrosis by morphology (acridine orange and ethidium bromide); type: cell-based, human; conditions: HT-29 treated for six days
Excerpt: Apoptosis occurs naturally during normal tissue turnover and during embryonic development of organs and limbs. Apoptosis also is induced by cytotoxic T-lymphocytes and natural killer cells, by ionizing radiation and by certain chemotherapeutic drugs. Inappropriate regulation of apoptosis is thought to play an important role in many pathological conditions including cancer, AIDS, or Alzheimer's disease, etc. Compounds can be screened for induction of apoptosis using cultures of tumor cells maintained under conditions as described above. Treatment of cells with test compounds involves either pre- or post-confluent cultures and treatment for two to seven days at various concentrations. Apoptotic cells are measured in both the attached and “floating” compartments of the cultures. Both compartments are collected by removing the supernatant, trypsinizing the attached cells, and combining both preparations following a centrifugation wash step (10 minutes, 2000 rpm). The protocol for treating tumor cell cultures with sulindac and related compounds to obtain a significant amount of apoptosis has been described in the literature. (See, Piazza, G. A., et al., Cancer Research, 55:3110-16, 1995, which is incorporated herein by reference). The novel features include collecting both floating and attached cells, identification of the optimal treatment times and dose range for observing apoptosis, and identification of optimal cell culture conditions.
as §1, §2
Reference compounds and test compounds were analyzed for their novel PDE inhibitory activity in accordance with the protocols for the assay, supra. […] Apoptotic and necrotic cell death was determined previously (Duke and Cohen, In: Current Protocols in Immunology, 3.17.1-3.17.16, New York, John Wiley and Sons, 1992). […] All data were collected from the same experiment.
The apoptosis inducing activity for a series of phosphodiesterase inhibitors was determined. HT-29 cell were treated for 6 days with various inhibitors of phosphodiesterase. Apoptosis and necrosis were determined morphologically after acridine orange and ethidium bromide labeling in accordance with the assay described, supra.

CC1=C(CC(=O)NCc2ccccc2)c2cc(F)ccc2/C1=C\c1ccncc1 [Compound I, (Z)-5-fluoro-2-methyl-(4-pyridylidene)-3-(N-benzyl)indenylacetamide hydrochloride]
inhibition at 100 µM [1]: < 25% | IC50 [2]: 0.68 µM | % Apoptosis ([3]; 0.35 μM): 16% | % Apoptosis ([3]; 0.7 μM): 27% | % Apoptosis ([3]; 1.5 μM): 88% | GI50 (Colo 205; Homo sapiens, COLO 205, 120 h): 1.6 µM | GI90 μM, Colo 205 (Colo 205): 2.4 µM | GI50 (NCI-H460; Homo sapiens, NCI-H460, 120 h): 1.9 µM | GI90 μM, NCI-H460 (NCI-H460): 30.0 µM | GI50 (Molt-4): 1.6 µM | GI50 (K-562): 1.8 µM | GI50 (OVCAR): 1.2 µM | GI50 (PANC-1): 2.2 µM | signs of toxicity, single oral doses [4]: no observable signs of toxicity | findings after single intraperitoneal dose ([4]; ip, 1000 mg/kg): reduced body weight gain, with mesenteric adhesions seen in some animals | body weight gain, single oral dose ([4]; po, 4000 mg/kg): body weight gains were slightly reduced | EC50 ([5]; SW480, read-out: DNA fragmentation EC50): 15 µM

CC1=C(CC(=O)O)c2cc(F)ccc2/C1=C\c1ccc(S(C)(=O)=O)cc1 [Exisulind, 5-fluoro-2-methyl-1-(p-methylsulfonylbenzylidene)-3-indenylacetic acid]
COX Inhibition ([1]; qualitative activity profile): − | inhibition at 100 µM [1]: < 25% | cGMP PDE inhibitory activity, % Inhibition at 10 μM ([2]; 10 μM): 39% | PDE Inhibition ([2]; qualitative activity profile): ++ | IC50 [2]: 56 µM | Apoptosis [6]: ++ | apoptotic and necrotic cell death (HT-29 cells): capable of causing apoptotic cell death without inducing necrosis | fold induction at 100 µM ([5]; SW480, read-out: Apoptosis-inducing activity, Fold induction at 100 μM, 100 μM, cell line not given): < 2
